# What was measured:
# Assay in all cases: relative viability (nuclei count vs DMSO), 5 days (fraction); higher = more cells survive
# 201T = system: 201T
# In short: (§1)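 Lung cancer cell lines, seeded in 1536-well plates, were treated the following day by pin tool with a single drug or with five library-drug doses (not always all listed) in √10 steps on top of a fixed anchor-drug dose. Cells were fixed and nuclei stained in one step after 5 days, and nuclei were counted. Relative viability is the nuclei count for treated wells divided by that for vehicle wells, reported as medians of duplicate plates.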
# A-427 = system: A-427
# In short: as §1
# COR-L 105 = system: COR-L 105
# In short: as §1
# COR-L23 = system: COR-L23
# In short: as §1
# EKVX = system: EKVX
# In short: as §1
# EMC-BAC-2 = system: EMC-BAC-2
# In short: as §1
# EPLC-272H = system: EPLC-272H
# In short: as §1
# HCC-44 = system: HCC-44
# In short: as §1
# HCC-827 = system: HCC-827
# In short: as §1
# LU99A = system: LU99A
# In short: as §1
# NCI-H1437 = system: NCI-H1437
# In short: as §1
# NCI-H1666 = system: NCI-H1666
# In short: as §1
# NCI-H1792 = system: NCI-H1792
# In short: as §1
# NCI-H2009 = system: NCI-H2009
# In short: as §1
# NCI-H2023 = system: NCI-H2023
# In short: as §1
# NCI-H2087 = system: NCI-H2087
# In short: as §1
# NCI-H3122 = system: NCI-H3122
# In short: as §1
# NCI-H520 = system: NCI-H520
# In short: as §1
# PC-14 = system: PC-14
# In short: as §1
# RERF-LC-KJ = system: RERF-LC-KJ
# In short: as §1
# SK-LU-1 = system: SK-LU-1
# In short: as §1
# SW 1573 = system: SW 1573
# In short: as §1
structure (smiles),measurement,setting,value
Nc1cccc2c1CN(C1CCC(=O)NC1=O)C2=O (stereo unspecified) [Lenalidomide] + CC1(C)CCC(c2ccc(Cl)cc2)=C(CN2CCN(c3ccc(C(=O)NS(=O)(=O)c4ccc(N[C@H](CCN5CCOCC5)CSc5ccccc5)c(S(=O)(=O)C(F)(F)F)c4)cc3)CC2)C1 [Navitoclax] (partner 0.5 µM),relative viability,201T; first compound 0.253 µM,1.21
same,relative viability,201T; first compound 0.8 µM,1.22
same,relative viability,201T; first compound 2.53 µM,1.19
same,relative viability,201T; first compound 8 µM,1.22
same,relative viability,A-427; first compound 0.253 µM,0.99
same,relative viability,A-427; first compound 2.53 µM,0.911
same,relative viability,A-427; first compound 8 µM,0.832
same,relative viability,COR-L 105; first compound 0.253 µM,0.45
same,relative viability,COR-L 105; first compound 0.8 µM,0.81
same,relative viability,COR-L 105; first compound 2.53 µM,0.717
same,relative viability,COR-L 105; first compound 8 µM,0.883
same,relative viability,COR-L23; first compound 0.253 µM,0.986
same,relative viability,COR-L23; first compound 0.8 µM,1.01
same,relative viability,COR-L23; first compound 2.53 µM,0.997
same,relative viability,COR-L23; first compound 8 µM,1.06
same,relative viability,EKVX; first compound 0.253 µM,0.882
same,relative viability,EKVX; first compound 0.8 µM,0.855
same,relative viability,EKVX; first compound 2.53 µM,1.13
same,relative viability,EKVX; first compound 8 µM,0.843
same,relative viability,EMC-BAC-2; first compound 0.253 µM,1.18
same,relative viability,EMC-BAC-2; first compound 0.8 µM,1.15
same,relative viability,EMC-BAC-2; first compound 2.53 µM,1.33
same,relative viability,EMC-BAC-2; first compound 8 µM,0.975
same,relative viability,EPLC-272H; first compound 0.253 µM,1.24
same,relative viability,EPLC-272H; first compound 2.53 µM,0.917
same,relative viability,EPLC-272H; first compound 8 µM,0.741
same,relative viability,HCC-44; first compound 0.253 µM,0.966
same,relative viability,HCC-44; first compound 0.8 µM,0.75
same,relative viability,HCC-44; first compound 2.53 µM,1.1
same,relative viability,HCC-44; first compound 8 µM,0.917
same,relative viability,HCC-827; first compound 0.253 µM,1.06
same,relative viability,HCC-827; first compound 0.8 µM,0.977
same,relative viability,HCC-827; first compound 2.53 µM,1.01
same,relative viability,HCC-827; first compound 8 µM,1.07
same,relative viability,LU99A; first compound 0.253 µM,0.853
same,relative viability,LU99A; first compound 0.8 µM,0.963
same,relative viability,LU99A; first compound 2.53 µM,0.925
same,relative viability,LU99A; first compound 8 µM,0.502
same,relative viability,NCI-H1437; first compound 0.253 µM,1.08
same,relative viability,NCI-H1437; first compound 0.8 µM,1.09
same,relative viability,NCI-H1437; first compound 2.53 µM,1.14
same,relative viability,NCI-H1437; first compound 8 µM,1.14
same,relative viability,NCI-H1666; first compound 0.253 µM,0.915
same,relative viability,NCI-H1666; first compound 0.8 µM,0.893
same,relative viability,NCI-H1666; first compound 2.53 µM,0.837
same,relative viability,NCI-H1666; first compound 8 µM,0.856
same,relative viability,NCI-H1792; first compound 0.253 µM,0.74
same,relative viability,NCI-H1792; first compound 0.8 µM,0.582
same,relative viability,NCI-H1792; first compound 2.53 µM,0.848
same,relative viability,NCI-H1792; first compound 8 µM,0.364
same,relative viability,NCI-H2009; first compound 0.253 µM,1.21
same,relative viability,NCI-H2009; first compound 0.8 µM,1.26
same,relative viability,NCI-H2009; first compound 2.53 µM,1.21
same,relative viability,NCI-H2009; first compound 8 µM,1.28
same,relative viability,NCI-H2023; first compound 0.253 µM,1
same,relative viability,NCI-H2023; first compound 0.8 µM,1.13
same,relative viability,NCI-H2023; first compound 2.53 µM,1.05
same,relative viability,NCI-H2023; first compound 8 µM,1.01
same,relative viability,NCI-H2087; first compound 0.253 µM,1.03
same,relative viability,NCI-H2087; first compound 0.8 µM,0.971
same,relative viability,NCI-H2087; first compound 2.53 µM,0.962
same,relative viability,NCI-H2087; first compound 8 µM,1.06
same,relative viability,NCI-H3122; first compound 0.253 µM,1
same,relative viability,NCI-H3122; first compound 0.8 µM,1.08
same,relative viability,NCI-H3122; first compound 2.53 µM,0.997
same,relative viability,NCI-H3122; first compound 8 µM,1.07
same,relative viability,NCI-H520; first compound 0.253 µM,0.958
same,relative viability,NCI-H520; first compound 0.8 µM,1.05
same,relative viability,NCI-H520; first compound 2.53 µM,1.22
same,relative viability,NCI-H520; first compound 8 µM,0.892
same,relative viability,PC-14; first compound 0.253 µM,0.907
same,relative viability,PC-14; first compound 0.8 µM,1.02
same,relative viability,PC-14; first compound 2.53 µM,1.08
same,relative viability,PC-14; first compound 8 µM,1.05
same,relative viability,RERF-LC-KJ; first compound 0.253 µM,0.959
same,relative viability,RERF-LC-KJ; first compound 0.8 µM,0.736
same,relative viability,RERF-LC-KJ; first compound 2.53 µM,1.02
same,relative viability,RERF-LC-KJ; first compound 8 µM,1.09
same,relative viability,SK-LU-1; first compound 0.253 µM,0.729
same,relative viability,SK-LU-1; first compound 0.8 µM,0.946
same,relative viability,SK-LU-1; first compound 2.53 µM,1.45
same,relative viability,SK-LU-1; first compound 8 µM,0.924
same,relative viability,SW 1573; first compound 0.253 µM,0.931
same,relative viability,SW 1573; first compound 0.8 µM,0.911
same,relative viability,SW 1573; first compound 2.53 µM,1.07
same,relative viability,SW 1573; first compound 8 µM,0.926
